Reference: US20130005644A1, “CYCLIC AGONISTS AND ANTAGONISTS OF C5A RECEPTORS AND G PROTEIN-COUPLED RECEPTORS” (PROMICS PTY LIMITED, priority 1997, published 2013)
Where two headings read alike, the source gives them in different places. Values belong to the molecule of their own block, whether it stands above or below them. Where a SMILES comes first, the peptide text is derived from it. [ ]: non-standard residue; d: D form. dCha = N[C@H](CC1CCCCC1)C(=O)O

How the values were obtained:
[1] = molecular target: T1, C5a receptor (Homo sapiens, UniProt P21730); assay: Myeloperoxidase release from human PMNs mediated by 100 nM C5a (antagonist potency); type: cell-based; settings: for IC50: 50% inhibition of C5a (100 nM)-caused release of MPO from PMNs, mean ± SE, read-out: pD2 ± SE (antagonist potency) (converted)
T1 construct: endogenous in cells; host or cells: fresh human polymorphonuclear leukocytes (PMNs), intact cells
T1 sequence (P21730 1-350): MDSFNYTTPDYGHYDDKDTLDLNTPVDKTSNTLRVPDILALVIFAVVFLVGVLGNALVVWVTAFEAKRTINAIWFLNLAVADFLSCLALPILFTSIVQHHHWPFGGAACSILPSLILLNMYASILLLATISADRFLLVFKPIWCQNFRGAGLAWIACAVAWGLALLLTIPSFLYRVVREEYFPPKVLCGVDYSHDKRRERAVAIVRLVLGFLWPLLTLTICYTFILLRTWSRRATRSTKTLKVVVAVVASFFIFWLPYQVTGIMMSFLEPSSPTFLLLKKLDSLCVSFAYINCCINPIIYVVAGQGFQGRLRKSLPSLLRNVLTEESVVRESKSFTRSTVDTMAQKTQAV

[2] = molecular target: T1, C5a receptor; assay: Agonist activity in human PMNs; type: cell-based
Description: Cells were isolated as previously described (Sanderson et al, 1995) and incubated with cytochalasin B (5 μg/mL, 15 min, 37° C.). Hank's Balanced Salt solution containing 0.15% gelatin and peptide was added on to a 96 well plate (total volume 100 μL/well), followed by 25 μL cells (4×10^6/mL). To assess the capacity of each peptide to antagonise C5a, cells were incubated for 5 min at 37° C. with each peptide, followed by addition of C5a (100 nM) and further incubation for 5 min. Then 50 μL of sodium phosphate (0.1M, pH 6.8) was added to each well, the plate was cooled to room temperature, and 25 μL of a fresh mixture of equal volumes of dimethoxybenzidine (5.7 mg/mL) and H2O2 (0.51%) was added to each well. The reaction was stopped at 10 min by addition of 2% sodium azide. Absorbances were measured at 450 nm in a Bioscan 450 plate reader, corrected for control values (no peptide), and analysed by non-linear regression.

[3] = molecular target: T2, C5aR (Homo sapiens, UniProt P21730); assay: Receptor-binding assay: inhibition of 125I-C5a binding to intact human PMNs
T2 construct: endogenous in cells; host or cells: fresh human polymorphonuclear leukocytes (PMNs), intact cells
T2 sequence (P21730 1-350): T1 sequence (P21730 1-350)

[4] = system: carrageenan-induced paw oedema in Wistar rats; assay: Carrageenan-induced rat paw oedema; type: in vivo; settings: 1 mg/kg i.p. 30 min prior to carrageenan, after 180 and 270 min
Description: Alternatively, a routine carrageenan paw oedema was developed in Wistar rats by administering a pedal injection of carrageenan to elicit oedema which is visible in 2 h and maximised in 4 h. […] See Fairlie, D. P. et al (1987). Also see Walker and Whitehouse (1978).
Paw swelling was measured for up to 4.5 hr.

[5] = molecular target: T1, C5a receptor; settings: human PMN; C5a agonist analogues; read-out: PMN Enzyme Release EC50; cited from earlier work
[6] = system: human fetal artery; settings: C5a agonist analogues; cited from earlier work
[7] = molecular target: T2, C5aR; settings: cited from earlier work
[8] = system: LPS-induced neutropenia in Wistar rats; assay: LPS-induced neutropenia and haematocrit change; type: in vivo
Description: LPS causes rapid neutropenia in rats. If this effect of LPS is blocked by C5a antagonists, then C5a may be of major importance in the acute effects of LPS, and the results shown in FIG. 9 were in agreement with this hypothesis. C5a antagonists were injected (bolus i.v.) 10 min prior to challenge with LPS. Rats were anaesthetised, and blood samples (0.3 ml) were taken for measurements of PMNs. PMNs are isolated and quantified.

[9] = system: C5a-induced neutropenia in Wistar rats; assay: C5a-induced neutropenia in vivo; settings: 1 mg/kg i.v. given prior to 2 μg C5a i.v.
Description: Compounds were evaluated in an acute model of C5a-induced neutropenia. Transient neutropenia maximises 5 min after i.v. C5a and is profound, with >90% of circulating neutrophils disappearing from circulation at effective doses of C5a, as shown in FIG. 8. The neutropenia is due to transient adherence of circulating neutrophils to the vascular endothelium.

[10] = dose range 0.1 nM-1 mM, human PMNs
[11] = 50% inhibition in the binding of [125I]C5a to intact PMNs, mean ± SE, read-out: pD2 ± SE (binding) (converted)
[12] = PMN C5aR, Finch et al, 1997, read-out: Binding Affinity IC50

antagonist activity against C5a and agonist decapeptide analogue 4 ([1]; human PMNs): shows antagonist activity | Agonist Activity [2, 10]: no agonist properties | Agonist Activity ([2]; dose range 0.1 nM-1 mM, human PMNs, listed as SEQ. ID NO: 7): No
Molecule: CN[C@@H](Cc1ccccc1)C(=O)N[C@@H](CCCCN)C(=O)N1CCC[C@H]1C(=O)N[C@H](CC1CCCCC1)C(=O)N[C@@H](Cc1c[nH]c2ccccc12)C(=O)N[C@H](CCCNC(=N)N)C(=O)O [Compound 7, N-methylphenylalanine-lysine-proline-D-cyclohexylalanine-tryptophan-D-arginine, reference compound]

reduction of receptor-affinity versus 7 ([3]; conversion to the amide): approximately 5 fold | reduction of antagonist activity versus 7 ([1]; conversion to the amide): approximately 5 fold | Agonist Activity [2, 10]: No
Molecule: CN[C@@H](Cc1ccccc1)C(=O)N[C@@H](CCCCN)C(=O)N1CCC[C@H]1C(=O)N[C@H](CC1CCCCC1)C(=O)N[C@@H](Cc1c[nH]c2ccccc12)C(=O)N[C@H](CCCNC(=N)N)C(N)=O [Compound 8, MeFKP(dCha) Wr-CONH2]

Agonist Activity [2, 10]: No
Molecule: CN[C@@H](Cc1ccccc1)C(=O)N[C@@H](CCCCN)C(=O)N1CCC[C@H]1C(=O)N[C@H](CC1CCCCC1)C(=O)N[C@@H](Cc1c[nH]c2ccccc12)C(=O)N[C@@H](CCCNC(=N)N)C(=O)O [Compound 9, MeFKP(dCha)WR]

Agonist Activity ([2]; Table 5, cyclic molecules): No | Agonist Activity [2, 10]: No
Molecule: CC(=O)N[C@@H](Cc1ccccc1)C(=O)N[C@H]1CCCCNC(=O)[C@@H](CCCNC(=N)N)NC(=O)[C@H](Cc2c[nH]c3ccccc23)NC(=O)[C@@H](CC2CCCCC2)NC(=O)[C@@H]2CCCN2C1=O [Compound 11, Ac-F-[KP(dCha)Wr]

increase in receptor-binding affinity over decapeptide C-terminus of C5a (1) [3]: 10^4 | times less active than 17 in vitro as a C5a antagonist in PMNs [1]: 100 times | Agonist Activity ([2]; Table 5, cyclic molecules): No | Agonist Activity [2, 10]: No
Molecule: CC(=O)N[C@@H](Cc1ccccc1)C(=O)N[C@H]1CCCNC(=O)[C@@H](CCCNC(=N)N)NC(=O)[C@H](Cc2c[nH]c3ccccc23)NC(=O)[C@@H](CC2CCCCC2)NC(=O)[C@@H]2CCCN2C1=O [Compound 12, Ac-F-[OP(dCha)Wr]
development of carrageenan paw oedema (paw swelling) [4]: significantly inhibits development of the oedema

IC50 [3, 11]: 0.316 µM | IC50 ([3]; Table 5, cyclic molecules, read-out: Receptor Affinity): 0.3 µM | IC50 [1]: 0.0437 µM | inhibition of the action of C5a and the binding of 125I-C5a to its receptor ([1]; in vitro on human PMNs): potent inhibitors at nM concentrations | Agonist Activity ([2]; Table 5, cyclic molecules): No
Molecule: N=C(N)NCCC[C@@H]1NC(=O)[C@H](Cc2c[nH]c3ccccc23)NC(=O)[C@@H](CC2CCCCC2)NC(=O)[C@@H]2CCCN2C(=O)[C@@H](NC(=O)[C@@H](N)Cc2ccccc2)CCNC1=O [Compound 15, F-[X^2PdChaWR]]

Agonist Activity ([2]; Table 5, cyclic molecules): No
Molecule: CC(=O)N[C@@H](Cc1ccccc1)C(=O)N[C@H]1CCCCNC(=O)[C@H](CCCNC(=N)N)NC(=O)[C@H](Cc2c[nH]c3ccccc23)NC(=O)[C@@H](CC2CCCCC2)NC(=O)[C@@H]2CCCN2C1=O [Compound 18]

pD2 ± SE (binding) ([3]; 50% inhibition in the binding of [125I]C5a to intact PMNs, mean ± SE): 4.37 ± 0.36
Molecule: N=C(N)NCCC[C@H]1NC(=O)[C@H](Cc2c[nH]c3ccccc23)NC(=O)[C@@H](CC2CCCCC2)NC(=O)[C@@H]2CCCN2C(=O)[C@H](Cc2c[nH]c3ccccc23)NC(=O)[C@H](Cc2ccccc2)NC1=O [Compound 19, [FWPdChaWr]] (cyclo(FWP[dCha]W[dR]); ring closure inferred)

IC50 [3, 11]: 8.13 µM | IC50 [1]: 2.82 µM
Molecule: N=C(N)NCCC[C@H]1NC(=O)[C@H](Cc2c[nH]c3ccccc23)NC(=O)[C@@H](CC2CCCCC2)NC(=O)[C@@H]2CCCN2C(=O)[C@@H](NC(=O)[C@@H](N)Cc2ccccc2)CCCCNC1=O [Compound 26, F-[KPdChaWr]]

IC50 [3, 11]: 0.316 µM | IC50 [1]: 0.204 µM
Molecule: N=C(N)NCCC[C@@H]1NC(=O)[C@H](Cc2c[nH]c3ccccc23)NC(=O)[C@@H](CC2CCCCC2)NC(=O)[C@@H]2CCCN2C(=O)[C@@H](NC(=O)[C@@H](N)Cc2ccccc2)CCCCNC1=O [Compound 28, F-[KPdChaWR]]

Molecule: C5a12-20-ahxYSFKPMPLaR [Compound 6]
EC50 [5]: 0.7 µM | EC50 [6]: 0.08 µM | IC50 [7, 12]: 0.07 µM

Molecule: C5a37-46-ahxYSFKPMPLaR [Compound 5]
EC50 [5]: 5.9 µM | EC50 [6]: 0.06 µM | IC50 [7, 12]: 0.7 µM

Molecule: C5a65-74 (ISHKDMQLGR) [Compound 1, decapeptide C-terminus of C5a]
EC50 [5]: > 1000 µM | EC50 [6]: > 1000 µM | IC50 [7, 12]: > 1000 µM | IC50 ([7]; literature values (Finch et al, 1997; Kawai et al, 1991), read-out: Receptor Affinity IC50): > 1000 µM

Molecule: F-[OPdChaWR]
LPS-induced neutropenia ([8]; 1 mg/kg i.v. 10 min prior to i.v. LPS, rats): inhibits neutropenia | LPS-induced changes in haematocrit ([8]; 0.03-10 mg/kg i.v., 10 min prior to LPS 1 mg/kg i.v., Wistar rats): inhibition of LPS-induced neutropenia and changes in haematocrit | C5a-induced neutropenia [9]: inhibits C5a-induced neutropenia

Molecule: YSFKDMPLaR [Compound 3, C5a agonist analogue]
EC50 [5]: 72 µM | EC50 [6]: 0.5 µM | IC50 [7, 12]: 3.7 µM

Molecule: YSFKDMQLGR [Compound 2, C5a agonist analogue]
EC50 [5]: 92 µM | EC50 [6]: 9.6 µM | IC50 [7, 12]: 1.3 µM

Agonist Activity [2, 10]: Yes
B1: C5a: human recombinant C5a, 74 amino acid complement glycoprotein (protein)
chain: TLQKKIEEIAAKYKHSVVKKCCYDGACVNNDETCEQRAARISLGPRCIKAFTECCVVASQLRANISHKDMQLGR
EC50 [5]: 0.03 µM | EC50 [6]: 0.02 µM | IC50 [7, 12]: 0.0006 µM
